From patent publication US9327264B2, “Containerless synthesis of amorphous and nanophase organic materials” (UCHICAGO ARGONNE, LLC, priority 2011, dated 2016)
Like-named read-outs stand apart in the source and are kept apart here.

Legend:
Assay type in all cases: physicochemical
[1] = Glass transition temperature Tg
Protocol: The quenched samples were stored at temperatures ranging from about −20° C. to 25° C.

[2] = Shelf life of substantially pure amorphized materials stored at 4° C. (x-ray diffraction)
Excerpt: The inventors have discovered that acoustic levitation produces amorphous forms of a variety of organic compounds having different glass forming abilities. […] It is also noted that the term “vitreous”, “vitrify”, “vitrification”, “glass” and “glassy” are variations of amorphous for the purposes of this specification and may be used interchangeably. The x-ray diffraction patterns were obtained using very high flux, high energy x-rays that are capable of detecting even minute (<1%) traces of crystalline materials. A configuration to enable x-ray beam analysis is depicted in FIG. 8 and discussed infra.
Several amorphized samples were quenched by trapping them in a small volume of liquid quenchent (for example liquid nitrogen, which is maintained at about −196° C.). The quenched samples were stored at temperatures ranging from about −20° C. to 25° C.
Shelf life is therefore extended by cooling them. […] For bulk storage of amorphized materials, samples are stored at temperatures below freezing (0° C.) if the samples are to be kept more than 150 days. However, for short term storage (e.g., less than 150 days), stability is achieved at storage temperatures up to about 20° C.
Myriad types of materials are candidates for processing using the invented weightless process. Suitable genuses of material include, but are not limited to pharmaceuticals, antibiotics, cosmetics, foods such as dairy products, and combinations thereof. Table 1 below depicts the sample stability over time for various amorphous materials produced using the invented method.
The structure of the starting crystalline materials, the supersaturated samples processed in the levitator, and the in-situ progress of the evaporation experiments were measured using the 115 keV x-ray diffraction beam line 11-ID-C at the Advanced Photon Source, located at Argonne National Laboratory, Argonne, Ill. X-rays with an incident wavelength of 0.10798 Å were used and the scattered x-ray intensity was measured with a flat plate a-Si Perkin Elmer area detector (model XRD 1621). Generally, radiations greater than 40 keV are suitable to provide bulk structure detail of materials about a millimeter or two in size.

[3] = Retention of amorphous form on temperature exposure and room temperature storage (x-ray diffraction); conditions: for Amorphous state during temperature exposure: exposure to temperatures between about −200° C. and 25° C.; for Time amorphous form could be stored: room temperature, in glass or in contact with polyimide film
Excerpt: (Suitable film is polyimide film, e.g., Kapton from Dupont.)
The structure and properties of stable or meta-stable amorphous gels are often quite different from their crystalline counterparts. Therefore at, or just prior to, tP the gels were quenched into a small dish of liquid nitrogen in an attempt to preserve the amorphous forms. The cold solid samples were quickly recovered and re-levitated. In-situ x-ray structure measurements were then made on the cold solids as they warmed back to room temperature.
Generally, radiations greater than 40 keV are suitable to provide bulk structure detail of materials about a millimeter or two in size.

[4] = In situ x-ray monitoring of levitated amorphous gel over time; conditions: after more than 14 hours of in situ measurements on the levitated drop, from ethanol solution
Excerpt: By following the position of the principal peak in the x-ray diffraction patterns for all the supersaturated solutions, the amorphization process was investigated as a function of time. […] The fact there are no sharp (needle like) peaks in the measured spectra indicates the materials are completely amorphous. […] Some of the samples prepared using the invented process maintained their amorphous form for at least three weeks. This imaging method enabled the structural evolution of the material to be monitored in real time. The data were acquired from levitated samples in two minute duration sets.

[5] = quenched samples stored at about −20° C. to 25° C., as noted in Table 1

Tg [1] [°C] | Stability of amorphized drug over a period of months [2, 5] | Amorphous state during temperature exposure [3] | Time amorphous form could be stored [3] | Structure (SMILES) | also measured
61 | – | – | – | NC(=O)N1c2ccccc2C=Cc2ccccc21 [Carbamazepine] | Shelf life: amorphous state at time 1 month ([2]; stored at 4° C., 1 month): A/P; Shelf life: amorphous state at time 2 months ([2]; stored at 4° C., 2 months): A/P; Shelf life: amorphous state at time 3 months ([2]; stored at 4° C., 3 months): A/P; Shelf life: amorphous state at time 4 months ([2]; stored at 4° C., 4 months): A/P
7 | remained substantially stable | – | – | C(=C\c1ccccc1)/CN1CCN(C(c2ccccc2)c2ccccc2)CC1 [Cinnazirine, Cinnarizine] | –
– | – | remain amorphous | at least three | CC(C)(C)CC(C)(C)c1ccc(O)c(Cc2ccc(Cl)cc2Cl)c1 [Clofoctol] | –
30 | remained substantially stable | remain amorphous | at least three | Clc1ccccc1C(c1ccccc1)(c1ccccc1)n1ccnc1 [Clotrimazole] | –
– | – | – | at least three | CC(C)Cc1ccc(C(C)C(=O)O)cc1 (stereo not shown) [Ibuprofen] | Changes in structure of levitated amorphous gel after plateau [4]: only minimal changes in structure
−3 | – | remain amorphous | at least three | CC(C(=O)O)c1cccc(C(=O)c2ccccc2)c1 (stereo not shown) [Ketoprofen] | –
1 | remained substantially stable | – | – | Clc1ccc(COC(Cn2ccnc2)c2ccc(Cl)cc2Cl)c(Cl)c1 (stereo not shown) [Miconazole Nitrate] | –
27 | – | – | – | CC(C)(Sc1cc(C(C)(C)C)c(O)c(C(C)(C)C)c1)Sc1cc(C(C)(C)C)c(O)c(C(C)(C)C)c1 [Probucol] | Stability of amorphized drug over a period of months [2]: remained substantially stable
